Source: US20090044291A1, “DROUGHT-RESISTANT PLANTS AND METHOD FOR PRODUCING THE PLANTS” (D-Helix, priority 2006, published 2009)
pKd: −log10 of the molar value. Read-outs that look alike come from different tables or passages of the source.

Molecular target: T1, natural ABAR/CHLH protein (Arabidopsis thaliana, UniProt Q9FNB0)
T1 construct: 50 μg proteins of the crude extracts from two-week-old Arabidopsis seedlings; from tissue; host or cells: crude extracts of two-week-old Arabidopsis seedlings / leaves of gl1 (WT), RNAi line 12 and overexpressor line 1
T1 sequence (Q9FNB0 50-1381): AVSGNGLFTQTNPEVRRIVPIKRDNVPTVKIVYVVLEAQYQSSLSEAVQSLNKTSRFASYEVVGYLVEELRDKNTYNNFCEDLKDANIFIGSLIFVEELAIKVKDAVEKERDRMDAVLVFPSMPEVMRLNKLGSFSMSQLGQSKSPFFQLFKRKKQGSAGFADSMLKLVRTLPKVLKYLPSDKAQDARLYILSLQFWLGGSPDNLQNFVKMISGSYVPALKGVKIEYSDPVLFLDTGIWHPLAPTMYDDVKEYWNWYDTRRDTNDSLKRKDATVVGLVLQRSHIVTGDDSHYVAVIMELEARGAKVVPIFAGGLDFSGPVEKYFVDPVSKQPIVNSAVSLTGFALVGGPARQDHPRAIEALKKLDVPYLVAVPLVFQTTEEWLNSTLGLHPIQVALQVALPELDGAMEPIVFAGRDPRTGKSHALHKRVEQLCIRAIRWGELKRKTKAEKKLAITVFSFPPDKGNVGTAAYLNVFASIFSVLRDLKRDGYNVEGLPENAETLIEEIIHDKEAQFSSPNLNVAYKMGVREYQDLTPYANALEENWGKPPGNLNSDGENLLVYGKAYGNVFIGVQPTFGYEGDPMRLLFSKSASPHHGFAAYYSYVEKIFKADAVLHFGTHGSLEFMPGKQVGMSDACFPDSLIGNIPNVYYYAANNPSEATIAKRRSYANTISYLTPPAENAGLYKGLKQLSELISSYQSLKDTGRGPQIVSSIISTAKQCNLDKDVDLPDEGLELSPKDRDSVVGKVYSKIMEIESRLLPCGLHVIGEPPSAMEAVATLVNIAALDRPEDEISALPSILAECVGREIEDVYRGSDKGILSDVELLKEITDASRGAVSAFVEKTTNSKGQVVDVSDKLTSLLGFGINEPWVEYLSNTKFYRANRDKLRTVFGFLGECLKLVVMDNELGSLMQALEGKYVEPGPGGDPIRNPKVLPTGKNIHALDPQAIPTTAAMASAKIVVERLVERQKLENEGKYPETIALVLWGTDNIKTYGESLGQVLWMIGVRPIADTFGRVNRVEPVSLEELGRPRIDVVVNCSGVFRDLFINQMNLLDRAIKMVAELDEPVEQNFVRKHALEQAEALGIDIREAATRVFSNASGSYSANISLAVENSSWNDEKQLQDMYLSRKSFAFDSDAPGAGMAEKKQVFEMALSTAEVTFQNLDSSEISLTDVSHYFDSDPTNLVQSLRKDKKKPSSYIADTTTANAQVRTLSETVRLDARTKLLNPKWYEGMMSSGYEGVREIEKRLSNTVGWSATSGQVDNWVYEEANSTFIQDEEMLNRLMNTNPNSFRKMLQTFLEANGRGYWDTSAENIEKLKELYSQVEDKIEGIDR
Assay: ABA binding assay with crude extracts of leaves (WT, RNAi, OE lines)
Protocol: The ABA-binding activity of ABAR was assayed according to the previously described procedures (Zhang, D. P. et al., Plant physiol. 128:714-725 (2002)) with modifications. The binding medium (medium A) contained 50 mM Tris-HCl (pH 7.0), 2 mM MgCl2, 1 mM CaCl2, and 250 mM mannitol. The medium for extracting the Arabidopsis natural ABAR/CHLH protein (medium B) was the medium A supplemented with 2 mM 1,4-dithiothreitol (DTT), 1 mM phenylmethyl sulfonyl fluoride (PMSF), […] leupeptin, and […] pepstin A but minus 250 mM mannitol. [^3H](+)ABA (American Radiolabeled Chemicals, 2.37×10^12 Bq mmol^−1, purity 98.4%) at 30 nM, or at a step gradient of concentrations from 0 to 70 nM (when analyzing ABA binding kinetics, see FIG. 1a, d1), together with 2 μg purified yeast-expressed ABAR/CHLH protein or 50 μg proteins of the crude extracts from two-week-old Arabidopsis seedlings, was added into the medium A. The total volume for the binding assays was adjusted to 200 μl. The mixtures were incubated at 25° C. for 30 min, and then quickly placed on ice. Following the addition of 100 μl 0.5% (w/v) Dextran T70-coated charcoal (DCC) to remove the free [^3H]ABA by adsorption, the mixtures were maintained on ice for 5 min, and then centrifuged to remove DCC before the radioactivity in the supernatant was counted. The specific binding was determined by the difference between the radioactivity bound to the immuno-purified ABAR protein or crude extracts of Arabidopsis seedlings incubated only with [^3H]ABA (total binding) and radioactivity bound in the presence of 1,000-fold molar excess of unlabeled (+)-ABA (Sigma; non-specific binding. Non-specific binding in all the assays was lower than 10% of the total binding, see FIG. 1a, d1). The unlabeled ABA was added into the incubation medium at the same time with [^3H]ABA. The ABA-binding activity of the crude ABA-binding protein from Arabidopsis seedling was expressed as the number of nanomoles of [^3H]ABA specifically bound per gram of protein, and that of the immuno-purified ABAR protein as the number of moles of [^3H]ABA per mole of protein. The stereo-specificity of the ABA-binding was assayed as described previously (Zhang, D. P. et al., Plant physiol. 128:714-725 (2002)). […] The conditions of incubation were the same as described above (the incubation medium containing 30 nM [^3H]ABA), and the two ABA isomers and (+)-ABA were assayed in the concentrations ranging from 1 to 1000-fold molar excess of [^3H]ABA.
For the assays of ABA binding in transgenic ABAR-RNAi and -overexpressor plants, we used more than three lines for each type of the transgenic plants and the results obtained were similar. Thus, only were the data with RNAi line 12 and overexpressor line 1 (see FIG. 5) shown in the text.

Compound `CC1=CC(=O)CC(C)(C)C1(O)/C=C/C(C)=C\C(=O)O` (stereo not shown) [ABA, abscisic acid] has a pKd (across WT, RNAi and overexpressing leaf extracts, read-out: Kd) of 7.42 to 7.46, a Bmax (leaf extracts of RNAi transgenic plants) of 25 nmol/g and a pKd (leaf extracts of RNAi transgenic plants, read-out: Kd) of 7.44. The Bmax (leaf extracts of overexpressors of ABAR/CHLH gene (OE, line 1)) was 80 nmol/g, the pKd (leaf extracts of overexpressors of ABAR/CHLH gene (OE, line 1), read-out: Kd) was 7.42 and the “Bmax (maximum binding)” value (leaf extracts of wild-type plants (WT)) was 60 nmol ABA g^−1 crude protein. The pKd (leaf extracts of wild-type plants (WT), read-out: Kd (equilibrium dissociation constant)) was 7.46.
